Reference: the supplement of paper PMC7840683
Where a name gives a salt, the structure may show the parent alone.

Tested on: HepaRG
Assay: LDH release cytotoxicity, % of total lysis control; higher = more cytotoxic
Settings: 48 h
Summary of the method: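 On collagen I-coated 96-well plates, single-lot HepaRG cells were exposed for 48 h, in duplicate, to eight-point half-log series of test chemicals beginning at 100 µM. The exposure medium was serum-free induction medium with 0.5% DMSO, and total lysis wells got 0.1% Triton X. Resorufin fluorescence from the CytoTox-ONE reaction, read on a Tecan Safire, reported LDH in 50 µL of spent medium. Percent cytotoxicity came from normalization to on-plate vehicle and total lysis controls, averaged over the duplicates.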

O=C1OC(c2ccc(O)cc2)(c2ccc(O)cc2)c2ccccc21 [Phenolphthalein]
Settings	LDH release cytotoxicity [%]
0.03162 µM	-0.731
0.1 µM	-1.59
0.3162278 µM	-0.412
1 µM	-1.68
3.16228 µM	-0.391
10 µM	0.41
31.6228 µM	0.57
100 µM	10.5

O=C(O)c1ccccc1C(c1ccc(O)cc1)c1ccc(O)cc1 [Phenolphthalin]
Settings	LDH release cytotoxicity [%]
0.03162 µM	-1.69
0.1 µM	-1.91
0.3162278 µM	-2.15
1 µM	-2.6
3.16228 µM	-1.53
10 µM	-1.03
31.6228 µM	-1.15
100 µM	0.0929

c1ccc2c(c1)Nc1ccccc1S2 [Phenothiazine]
Settings	LDH release cytotoxicity [%]
0.03162 µM	-1.44
0.1 µM	-0.242
0.3162278 µM	-1.08
1 µM	-2.16
3.16228 µM	-1.87
10 µM	-1.1
31.6228 µM	0.496
100 µM	3.43

CC(=O)[O][Hg][c]1ccccc1 [Phenylmercuric acetate]
Settings	LDH release cytotoxicity [%]
0.03162 µM	-1.79
0.1 µM	-0.0392
0.3162278 µM	3.3
1 µM	13.6
3.16228 µM	23.5
10 µM	45.48
31.6228 µM	-7.82
100 µM	-8.63

CCOP(=S)(OCC)SCSCC [Phorate]
Settings	LDH release cytotoxicity [%]
0.03162 µM	-1.85
0.1 µM	-2.54
0.3162278 µM	-2.48
1 µM	-2.38
3.16228 µM	-2.32
10 µM	-1.2
31.6228 µM	-1.22
100 µM	-0.0088

CCOP(=S)(OCC)SCn1c(=O)oc2cc(Cl)ccc21 [Phosalone]
Settings	LDH release cytotoxicity [%]
0.03162 µM	-2.44
0.1 µM	-3.01
0.3162278 µM	-2.19
1 µM	-2.28
3.16228 µM	-2.21
10 µM	-2.4
31.6228 µM	-1.63
100 µM	-1.09

COP(=S)(OC)SCN1C(=O)c2ccccc2C1=O [Phosmet]
Settings	LDH release cytotoxicity [%]
0.03162 µM	-1.04
0.1 µM	-1.58
0.3162278 µM	-0.933
1 µM	-1.6
3.16228 µM	-1.56
10 µM	-1.14
31.6228 µM	-1.65
100 µM	0.331

Nc1c(Cl)c(Cl)nc(C(=O)O)c1Cl [Picloram]
Settings	LDH release cytotoxicity [%]
0.031623 µM	-0.672
0.1 µM	-3.68
0.316228 µM	-3.74
1 µM	-3.09
3.16228 µM	-2.76
10 µM	-2.73
31.6228 µM	-2.11
100 µM	0.666

COC=C(C(=O)OC)c1ccccc1COc1cccc(C(F)(F)F)n1 [Picoxystrobin]
Settings	LDH release cytotoxicity [%]
0.03162 µM	-4.13
0.1 µM	-3.11
0.3162278 µM	-4.04
1 µM	-4.28
3.16228 µM	-5.14
10 µM	20
31.6228 µM	37
100 µM	60

CCc1ccc(CCOc2ccc(CC3SC(=O)NC3=O)cc2)nc1 (configuration not stated) [Pioglitazone hydrochloride]
Settings	LDH release cytotoxicity [%]
0.03162 µM	-0.765
0.1 µM	-1.11
0.3162278 µM	-1.39
1 µM	-1.98
3.16228 µM	-2.26
10 µM	-3.4
31.6228 µM	-3.94
100 µM	-0.63

C1CNCCN1 [Piperazine]
Settings	LDH release cytotoxicity [%]
0.03162 µM	-6.9
0.1 µM	-7.27
0.3162278 µM	-6.65
1 µM	-7.16
3.16228 µM	-6.57
10 µM	-6.04
31.6228 µM	-6.14
100 µM	-6.01

CCCCOCCOCCOCc1cc2c(cc1CCC)OCO2 [Piperonyl butoxide]
Settings	LDH release cytotoxicity [%]
0.031939 µM	-0.462
0.101 µM	-2.71
0.31939 µM	-2.69
1.01 µM	-3.07
3.1939 µM	-2.38
10.1 µM	-1.93
31.939 µM	-0.729
101 µM	4.54

CS(=O)(=O)c1ccc(C(CC2CCC(=O)C2)C(=O)Nc2cnccn2)cc1Cl (configuration not stated) [Piragliatin]
Settings	LDH release cytotoxicity [%]
0.03162 µM	-0.668
0.1 µM	-1.54
0.3162278 µM	-0.661
1 µM	-1.64
3.16228 µM	-1.28
10 µM	-0.831
31.6228 µM	-1.24
100 µM	-0.692

Cc1nc(N(C)C)nc(OC(=O)N(C)C)c1C [Pirimicarb]
Settings	LDH release cytotoxicity [%]
0.03162 µM	-1.14
0.1 µM	-1.49
0.3162278 µM	-1.89
1 µM	-1.97
3.16228 µM	-1.7
10 µM	-1.84
31.6228 µM	-1.4
100 µM	-0.895

CCN(CC)c1nc(C)cc(OP(=S)(OC)OC)n1 [Pirimiphos-methyl]
Settings	LDH release cytotoxicity [%]
0.03162 µM	0.287
0.1 µM	-1.19
0.3162278 µM	-1.08
1 µM	-0.906
3.16228 µM	-1.49
10 µM	-0.783
31.6228 µM	-1.01
100 µM	-1.29

Cc1cccc(Nc2cc(Cl)nc(SCC(=O)O)n2)c1C [Pirinixic acid]
Settings	LDH release cytotoxicity [%]
0.03162 µM	-1.32
0.1 µM	-1.59
0.3162278 µM	-0.978
1 µM	-0.873
3.16228 µM	-1.38
10 µM	-1.43
31.6228 µM	0.274
100 µM	2.17

O=S(=O)(O)C(F)(F)C(F)(F)C(F)(F)C(F)(F)F [Potassium perfluorobutanesulfonate]
Settings	LDH release cytotoxicity [%]
0.0332039 µM	-0.897
0.105 µM	-1.25
0.332039 µM	-2.33
1.05 µM	-2.02
3.32039 µM	-1.34
10.5 µM	-1.05
33.2039 µM	-1.53
105 µM	0.458

O=S(=O)(O)C(F)(F)C(F)(F)C(F)(F)C(F)(F)C(F)(F)C(F)(F)F [Potassium perfluorohexanesulfonate]
Settings	LDH release cytotoxicity [%]
0.03162 µM	-0.914
0.1 µM	-1.15
0.3162278 µM	-1.06
1 µM	-1.98
3.16228 µM	-1.95
10 µM	-0.831
31.6228 µM	-1.52
100 µM	-0.438

O=S(=O)(O)C(F)(F)C(F)(F)C(F)(F)C(F)(F)C(F)(F)C(F)(F)C(F)(F)C(F)(F)F [Potassium perfluorooctanesulfonate]
Settings	LDH release cytotoxicity [%]
0.03036 µM	-2.82
0.096 µM	-1.72
0.303579 µM	-2.71
0.96 µM	-2.314
3.03579 µM	-2.44
9.6 µM	-1.36
30.3579 µM	-1.03
96 µM	27.2

C#CCC1=C(C)C(OC(=O)C2C(C=C(C)C)C2(C)C)CC1=O (configuration not stated) [Prallethrin]
Settings	LDH release cytotoxicity [%]
0.0314647 µM	-1.54
0.0995 µM	-0.874
0.3146466 µM	-2.55
0.995 µM	-2.33
3.14647 µM	-1.9
9.95 µM	-1.44
31.4647 µM	-2.39
99.5 µM	3.9

CCC(C)C(=O)OC1CC(O)C=C2C=CC(C)C(CCC(O)CC(O)CC(=O)O)C21 (configuration not stated) [Pravastatin sodium]
Settings	LDH release cytotoxicity [%]
0.03162 µM	-0.512
0.1 µM	-1.91
0.3162278 µM	-0.491
1 µM	-1.07
3.16228 µM	-0.742
10 µM	0.11
31.6228 µM	0.155
100 µM	3.76

CC12C=CC(=O)C=C1CCC1C2C(=O)CC2(C)C1CCC2(O)C(=O)CO (configuration not stated) [Prednisone]
Settings	LDH release cytotoxicity [%]
0.03162 µM	-1.86
0.1 µM	-1.83
0.3162278 µM	-2.31
1 µM	-1.54
3.16228 µM	-1.77
10 µM	-1.84
31.6228 µM	-1.61
100 µM	-0.167

CCCN(CCOc1c(Cl)cc(Cl)cc1Cl)C(=O)n1ccnc1 [Prochloraz]
Settings	LDH release cytotoxicity [%]
0.031623 µM	0.136
0.1 µM	-2.541
0.316228 µM	-3.11
1 µM	-2.56
3.16228 µM	-0.716
10 µM	-0.855
31.6228 µM	13.7
100 µM	64.6

CC12CC1(C)C(=O)N(c1cc(Cl)cc(Cl)c1)C2=O (configuration not stated) [Procymidone]
Settings	LDH release cytotoxicity [%]
0.03162 µM	-1.37
0.1 µM	-1.85
0.3162278 µM	-2.08
1 µM	-2.56
3.16228 µM	-2.762
10 µM	-1.32
31.6228 µM	-2.43
100 µM	-1.16

CCCN(CCC)c1c([N+](=O)[O-])cc(C(F)(F)F)c(N)c1[N+](=O)[O-] [Prodiamine]
Settings	LDH release cytotoxicity [%]
0.03162 µM	-2.33
0.1 µM	-1.51
0.3162278 µM	-2.72
1 µM	-3.4
3.16228 µM	0.15
10 µM	-1.16
31.6228 µM	-0.459
100 µM	8.35

CCCSP(=O)(OCC)Oc1ccc(Br)cc1Cl (configuration not stated) [Profenofos]
Settings	LDH release cytotoxicity [%]
0.01581 µM	-6.81
0.05 µM	-6.73
0.1581139 µM	-6.46
0.5 µM	-6.51
1.5811388 µM	-6.7
5 µM	-7.47
15.8114 µM	-7.49
50 µM	-6.78

CC(=O)C1CCC2C3CCC4=CC(=O)CCC4(C)C3CCC12C (configuration not stated) [Progesterone]
Settings	LDH release cytotoxicity [%]
0.03162 µM	0.112
0.1 µM	-0.0962
0.3162278 µM	-0.597
1 µM	-0.509
3.16228 µM	-1.13
10 µM	-2
31.6228 µM	12.6
100 µM	55.9

COc1nc(NC(C)C)nc(NC(C)C)n1 [Prometon]
Settings	LDH release cytotoxicity [%]
0.03162 µM	-0.0909
0.1 µM	-0.994
0.3162278 µM	-1.1
1 µM	-1.18
3.16228 µM	-1.26
10 µM	-1.06
31.6228 µM	-0.722
100 µM	-0.643

CSc1nc(NC(C)C)nc(NC(C)C)n1 [Prometryn]
Settings	LDH release cytotoxicity [%]
0.031623 µM	1.02
0.1 µM	-3.89
0.316228 µM	-3.27
1 µM	-2.93
3.16228 µM	-2.42
10 µM	-2.73
31.6228 µM	-3.26
100 µM	-1.44
